Read-outs that look alike come from different tables or passages of the source.

This note sets out measurements from patent US8440652B2, “MST1 kinase inhibitors and methods of their use” (Lexicon Pharmaceuticals, Inc., priority 2011, dated 2013).

This experiment deals with T1, MST1 (Homo sapiens, UniProt Q13043).
T1 sequence (Q13043 1-487): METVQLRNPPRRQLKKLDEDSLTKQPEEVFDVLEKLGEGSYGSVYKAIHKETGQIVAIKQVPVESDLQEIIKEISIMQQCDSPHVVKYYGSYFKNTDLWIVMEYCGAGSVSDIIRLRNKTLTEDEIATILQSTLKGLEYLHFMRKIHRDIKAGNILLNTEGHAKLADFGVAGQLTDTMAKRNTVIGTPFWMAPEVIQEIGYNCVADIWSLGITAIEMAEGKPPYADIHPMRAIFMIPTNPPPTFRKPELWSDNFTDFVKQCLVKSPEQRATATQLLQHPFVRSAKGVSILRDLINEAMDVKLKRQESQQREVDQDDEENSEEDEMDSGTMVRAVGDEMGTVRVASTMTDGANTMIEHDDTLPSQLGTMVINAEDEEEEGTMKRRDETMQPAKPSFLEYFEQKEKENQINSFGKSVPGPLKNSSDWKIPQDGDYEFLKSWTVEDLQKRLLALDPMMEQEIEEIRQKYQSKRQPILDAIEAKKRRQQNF
The experiment in a line: In vitro measurement of MST1 inhibition (Z′-Lyte kinase assay). Type of experiment: biochemical. The protocol: Assays were performed in low-volume 384-well black proxiplates (Perkin Elmer, PE-Blk-Proxi-6008269). Eight compounds were first diluted into LDV (Echo) plates using a Multiprobe, at a starting concentration of 1 mM compound in 100% DMSO. Using the ECHO, 75 nl compound was pinged into 384-well proxiplates. The starting concentration of compound in each assay plate is 7.5 uM, followed by 3-fold dilutions, to give quadruplicate ten-point concentration curves. A 3× solution of MST1 enzyme in kinase buffer (Invitrogen, PR4940C) was added to wells containing compound or DMSO controls, followed by a 10 minute preincubation step. Reactions were initiated by adding 5 μL of a mixture of ATP and Z′-Lyte S/T Pep 7 (Invitrogen, PV3180) and proceeded at RT for 1 hour. […] At the end of the kinase reaction, 10 ul of developing solution (Invitrogen, catalog #PR4876B; development buffer A diluted […] in development buffer B) was added to each well and incubated at RT for 1 hr. All wells were read on a Tecan at 400 nm excitation and 460 nm/530 nm emission. Plus and minus enzyme controls were used to calculate percent inhibition and IC50 curves were generated using Excel.

[1] abbreviates: 1 μM ATP, read-out: IC50 (μM) 1 μM ATP.
Setting [2] is: 50 μM ATP, read-out: IC50 (μM) 50 μM ATP.

What is called IC50 is the concentration that inhibits the measured activity by half. On to `N#CC1(c2ccc(-c3cnc(N)c(-c4ccc5c(c4)CCNC5=O)n3)cc2)CCCC1` [1-(4-(5-amino-6-(1-oxo-1,2,3,4-tetrahydroisoquinolin-6-yl)pyrazin-2-yl)phenyl)cyclopentanecarbonitrile], for which the IC50 is less than 0.01 µM under setting [1] and less than 0.01 µM under setting [2].
With `N#CC1(c2ccc(-c3cnc(N)c(-c4ccc5c(=O)[nH]ccc5c4)n3)cc2)CC1` [1-(4-(5-amino-6-(1-oxo-1,2-dihydroisoquinolin-6-yl)pyrazin-2-yl)phenyl)cyclopropanecarbonitrile], the IC50 under setting [1] is less than 0.05 µM and the IC50 under setting [2] is less than 0.01 µM.
For the compound `N#CC1(c2ccc(-c3cnc(N)c(-c4ccc5c(c4)C4(CC4)CNC5=O)n3)cc2)CC1` [1-(4-(5-amino-6-(1′-oxo-2′,3′-dihydro-1′H-spiro[cyclopropane-1,4′-isoquinolin]-6′-yl)pyrazin-2-yl)phenyl)cyclopropanecarbonitrile], the IC50 is, setting by setting: under setting [1], less than 0.01 µM; under setting [2], less than 0.01 µM.
In the case of `N#CC1(c2ccc(-c3cnc(N)c(-c4ccc5c(c4)C4(CC4)NC5=O)n3)cc2)CC1` [1-(4-(5-amino-6-(3′-oxospiro[cyclopropane-1,1′-isoindolin]-6′-yl)pyrazin-2-yl)phenyl)cyclopropanecarbonitrile], the IC50 was less than 0.05 µM under setting [1] and less than 0.01 µM under setting [2].
For `CC1(C)CNC(=O)c2ccc(-c3nc(-c4ccc(C5(C#N)CC5)cc4)cnc3N)cc21` [1-(4-(5-amino-6-(4,4-dimethyl-1-oxo-1,2,3,4-tetrahydroisoquinolin-6-yl)pyrazin-2-yl)phenyl)cyclopropanecarbonitrile] the same measures were less than 0.01 µM and less than 0.01 µM.
As for `N#CC1(c2ccc(-c3cc(-c4ccc5c(c4)CCNC5=O)c(N)nn3)cc2)CC1` [1-(4-(6-amino-5-(1-oxo-1,2,3,4-tetrahydroisoquinolin-6-yl)pyridazin-3-yl)phenyl)cyclopropanecarbonitrile], the IC50 runs as follows: under setting [1], less than 0.15 µM; under setting [2], less than 0.15 µM.
As for `N#CC1(c2ccc(-c3cnc(N)c(-c4ccc5c(c4)CCNC5=O)c3)cc2)CC1` [1-(4-(6-amino-5-(1-oxo-1,2,3,4-tetrahydroisoquinolin-6-yl)pyridin-3-yl)phenyl)cyclopropanecarbonitrile], the IC50 under setting [1] was less than 0.05 µM and the IC50 under setting [2] is less than 0.05 µM.
Regarding `N#CCn1cc(-c2cnc(N)c(-c3ccc4c(c3)CCNC4=O)n2)cn1` [2-(4-(5-amino-6-(1-oxo-1,2,3,4-tetrahydroisoquinolin-6-yl)pyrazin-2-yl)-1H-pyrazol-1-yl)acetonitrile], the IC50 under setting [1] is less than 0.15 µM and the IC50 under setting [2] was less than 0.05 µM.
Turning to `Cc1cc(-c2cnc(N)c(-c3ccc4c(c3)CCNC4=O)n2)ccc1C(C)(C)C#N` [2-(4-(5-amino-6-(1-oxo-1,2,3,4-tetrahydroisoquinolin-6-yl)pyrazin-2-yl)-2-methylphenyl)-2-methylpropanenitrile], the IC50 by setting is: under setting [1], less than 0.05 µM; under setting [2], less than 0.01 µM.
For the compound `CC(C)(Oc1ccc(-c2cnc(N)c(-c3ccc4c(c3)CCNC4=O)n2)cc1)C(N)=O` [2-(4-(5-amino-6-(1-oxo-1,2,3,4-tetrahydroisoquinolin-6-yl)pyrazin-2-yl)phenoxy)-2-methylpropanamide], the IC50 reads like this: under setting [1], less than 0.05 µM; under setting [2], less than 0.01 µM.
For `N#CCOc1ccc(-c2cnc(N)c(-c3ccc4c(c3)CCNC4=O)n2)cc1` [2-(4-(5-amino-6-(1-oxo-1,2,3,4-tetrahydroisoquinolin-6-yl)pyrazin-2-yl)phenoxy)acetonitrile] the same measures were less than 0.15 µM and less than 0.05 µM.
For `CC(C)(C#N)c1ccc(-c2cnc(N)c(-c3ccc4c(c3)CCNC4=O)n2)cc1` [2-(4-(5-amino-6-(1-oxo-1,2,3,4-tetrahydroisoquinolin-6-yl)pyrazin-2-yl)phenyl)-2-methylpropanenitrile] the same measures were less than 0.05 µM and less than 0.01 µM.
For `N#CC1CC1c1ccc(-c2cnc(N)c(-c3ccc4c(c3)CCNC4=O)n2)cc1` (stereo not shown) [2-(4-(5-amino-6-(1-oxo-1,2,3,4-tetrahydroisoquinolin-6-yl)pyrazin-2-yl)phenyl)cyclopropanecarbonitrile] the same measures were less than 0.05 µM and less than 0.01 µM.
Take `CC(C)(C#N)c1ccc(-c2cnc(N)c(-c3ccc4c(=O)[nH]ccc4c3)n2)cc1` [2-(4-(5-amino-6-(1-oxo-1,2-dihydroisoquinolin-6-yl)pyrazin-2-yl)phenyl)-2-methylpropanenitrile]: the IC50 is less than 0.05 µM under setting [1] and less than 0.01 µM under setting [2].
Take `CC(C)(C#N)c1ccc(-c2cnc(N)c(-c3ccc4c(c3)CCNC4=O)n2)s1` [2-(5-(5-amino-6-(1-oxo-1,2,3,4-tetrahydroisoquinolin-6-yl)pyrazin-2-yl)thiophen-2-yl)-2-methylpropanenitrile]: the IC50 under setting [1] is less than 0.05 µM and the IC50 under setting [2] was less than 0.01 µM.
Regarding `N#CCc1ccc(-c2cnc(N)c(-c3ccc4c(c3)CCNC4=O)n2)s1` [2-(5-(5-amino-6-(1-oxo-1,2,3,4-tetrahydroisoquinolin-6-yl)pyrazin-2-yl)thiophen-2-yl)acetonitrile], the IC50 is, setting by setting: under setting [1], less than 0.05 µM; under setting [2], less than 0.01 µM.
Regarding `CC(C)(C#N)c1ccc(-c2cnc(N)c(-c3ccc4c(c3)CCNC4=O)c2)cn1` [2-(6′-amino-5′-(1-oxo-1,2,3,4-tetrahydroisoquinolin-6-yl)-[3,3′-bipyridin]-6-yl)-2-methylpropanenitrile], the IC50 was less than 0.05 µM under setting [1] and less than 0.05 µM under setting [2].
Regarding `CCN(CC)S(=O)(=O)c1ccc(-c2cnc(N)c(-c3ccc(C(N)=O)cn3)c2)cc1` [2′-amino-5′-(4-(N,N-diethylsulfamoyl)phenyl)-[2,3′-bipyridine]-5-carboxamide], the IC50 runs as follows: under setting [1], less than 0.05 µM; under setting [2], less than 0.01 µM.
Taken in the same sequence, the figures for `CCNS(=O)(=O)c1ccc(-c2cnc(N)c(-c3ccc(C(N)=O)cn3)c2)cc1` [2′-amino-5′-(4-(N-ethylsulfamoyl)phenyl)-[2,3′-bipyridine]-5-carboxamide] were less than 0.05 µM and less than 0.01 µM.
Taken in the same sequence, the figures for `NCC1CCC(NC(=O)c2nc(-c3ccc(S(=O)(=O)NC4CC4)cc3)cnc2N)CC1` (stereo not shown) [3-amino-N-(4-(aminomethyl)cyclohexyl)-6-(4-(N-cyclopropylsulfamoyl)phenyl)pyrazine-2-carboxamide] were less than 0.05 µM and less than 0.01 µM.
Regarding `CCCC(C)NC(=O)c1nc(-c2cc(OC)c(OC)c(OC)c2)cnc1N` (stereo not shown) [3-amino-N-(pentan-2-yl)-6-(3,4,5-trimethoxyphenyl)pyrazine-2-carboxamide], the IC50 under setting [2] was less than 0.15 µM.
On the same count and under the same terms, as for `COc1ccc(-c2cnc(N)c(C(=O)NC3CCCCC3)n2)cc1OC` [3-amino-N-cyclohexyl-6-(3,4-dimethoxyphenyl)pyrazine-2-carboxamide], the figure is less than 0.15 µM.
As to `CCNS(=O)(=O)c1ccc(-c2cnc(N)c(C(=O)NC3CCCCC3)n2)cc1` [3-amino-N-cyclohexyl-6-(4-(N-ethylsulfamoyl)phenyl)pyrazine-2-carboxamide], the IC50 was less than 0.15 µM under setting [1] and less than 0.05 µM under setting [2].
For the compound `COCc1ccc(-c2cnc(N)c(C(=O)NC3CCCCC3)n2)cc1` [3-amino-N-cyclohexyl-6-(4-(methoxymethyl)phenyl)pyrazine-2-carboxamide], the IC50 under setting [2] was less than 0.15 µM.
As for `CN(C1CC1)S(=O)(=O)c1ccc(-c2cnc(N)c(C3=CCN(C(=O)CC#N)CC3)c2)cc1` [4-(2-amino-1′-(2-cyanoacetyl)-1′,2′,3′,6′-tetrahydro-[3,4′-bipyridin]-5-yl)-N-cyclopropyl-N-methylbenzenesulfonamide], the IC50 runs as follows: under setting [1], less than 0.15 µM; under setting [2], less than 0.15 µM.
`NC(=O)c1ccc(-c2cc(-c3cn[nH]c3)cnc2N)cc1` [4-(2-amino-5-(1H-pyrazol-4-yl)pyridin-3yl)benzamide]: under setting [2], the IC50 is less than 0.15 µM.
Regarding `NC(=O)c1ccc(-c2cc(-c3ccc(S(=O)(=O)NC4CC4)cc3Cl)cnc2N)cc1` [4-(2-amino-5-(2-chloro-4-(N-cyclopropylsulfamoyl)phenyl)pyridin-3-yl)benzamide], the IC50 under setting [2] was less than 0.15 µM.
Same read-out and setting: next, `CN(C)C(=O)COc1ccc(-c2cnc(N)c(-c3ccc(C(N)=O)cc3)c2)cc1` [4-(2-amino-5-(4-(2-(dimethylamino)-2-oxoethoxy)phenyl)pyridin-3-yl)benzamide]: less than 0.15 µM; `NC(=O)c1ccc(-c2cc(-c3ccc(CC(=O)N4CCCC4)cc3)cnc2N)cc1` [4-(2-amino-5-(4-(2-oxo-2-(pyrrolidin-1-yl)ethyl)phenyl)pyridin-3-yl)benzamide]: less than 0.15 µM; `CCN(CC)S(=O)(=O)c1ccc(-c2cnc(N)c(-c3ccc(C(N)=O)c(F)c3)c2)cc1` [4-(2-amino-5-(4-(N,N-diethylsulfamoyl)phenyl)pyridin-3-yl)-2-fluorobenzamide]: less than 0.05 µM.
